Where two headings read alike, the source gives them in different places.

Format in all cases: cell-based
One test relates to MD-MB-231 cells. In words: MTT proliferation assay, MD-MB-231 breast cancer cells. To be noted: for effect on proliferation of MD-MB-231 cells: increasing concentrations, 24 and 48 hours, 10% charcoal-stripped phenol-free serum, dose dependent. The method, then: (§1) First, the role of THs on breast cancer cell proliferation was evaluated using escalating doses of tri-iodothyronine (T3) and thyroxine (T4). […] In particular, the compound of Formula (I) or compound of Formula (Ia) is dronedarone. Dronedarone was selected as it is an FDA approved anti-arrhythmic drug.
(§2) The effect of increasing concentrations of T3 and T4 on the proliferation of 3 breast cancer cell lines (MCF 7, MD-MB-231, BT-474) in 10% charcoal-stripped phenol-free serum was evaluated at 24 and 48 hours following standard MTT-assay protocols. Increasing doses of PTU and dronedarone were added to cells with 200 μM T3 or T4 to measure proliferation of MCF-7 and MD-MB-231 cells using MTT assays.

A further test has as its system MCF7 cells. Kind of test: MTT proliferation assay, MCF7 breast cancer cells. To be noted: for IC50: Homo sapiens; for IC50 / effect on proliferation: MCF7 cells; for effect on proliferation of MCF7 cells: increasing concentrations, 24 and 48 hours, 10% charcoal-stripped phenol-free serum, dose dependent. The method, then:
as §1, §2
In general terms: Formazan colour is commonly taken as a measure of viable cells.

In the next test the test system is BT-474 cells. Kind of test: MTT proliferation assay, BT-474 breast cancer cells. To be noted: increasing concentrations, 24 and 48 hours, 10% charcoal-stripped phenol-free serum, dose dependent. The method, then: as §1, §2

`CCCc1cc(=O)[nH]c(=S)[nH]1` [PTU, propylthiouracil]: the IC50 with MD-MB-231 cells (Homo sapiens, PTU alone, without T3/T4 (FIG. 11: MDA-MB-231 cells, 24 hours), read-out: concentration reducing cell proliferation by 50%) is greater than 12 µM; in the test on MD-MB-231 cells (MD-MB-231 cells, in the presence of T3 (FIG. 10), read-out: IC50 (proliferation)), 12 µM; in the test with MD-MB-231 cells (MD-MB-231 cells, in the presence of T4 (FIG. 10), read-out: concentration reducing proliferation by 50%) it was roughly 5 µM; with MCF7 cells (in the presence of T3 (FIG. 10), read-out: IC50 (proliferation)) it was 12 µM; in the test with MCF7 cells (in the presence of T4 (FIG. 10), read-out: concentration reducing proliferation by 50%) it was roughly 5 µM.

On to `N[C@@H](Cc1cc(I)c(Oc2ccc(O)c(I)c2)c(I)c1)C(=O)O` [T3, tri-iodothyronine], for which the “effect on proliferation of MD-MB-231 cells” value in the test with MD-MB-231 cells is “statistically significant increase”. In the test on BT-474 cells, the “effect on proliferation of BT-474 cells” value is given as “statistically significant increase”. For the same molecule, the “effect on proliferation of MCF7 cells” value in the test with MCF7 cells was “statistically significant increase”.

As for `N[C@@H](Cc1cc(I)c(Oc2cc(I)c(O)c(I)c2)c(I)c1)C(=O)O` [T4, thyroxine], in the test with MD-MB-231 cells, the “effect on proliferation of MD-MB-231 cells” value was “statistically significant increase”. The “effect on proliferation of BT-474 cells” value in the test with BT-474 cells was “statistically significant increase”. Moreover, the “effect on proliferation of MCF7 cells” value with MCF7 cells was “statistically significant increase”.

`CCCCc1oc2ccc(NS(C)(=O)=O)cc2c1C(=O)c1ccc(OCCCN(CCCC)CCCC)cc1` [dronedarone]: the effect on proliferation entry with MD-MB-231 cells (MD-MB-231 cells, 10 μM dronedarone in combination with T3) is recorded as “significantly reduced proliferation”; with MD-MB-231 cells (MD-MB-231 cells, 10 μM dronedarone in combination with T4), “significantly reduced proliferation”; with MCF7 cells (10 μM dronedarone in combination with T3), “significantly reduced proliferation”; in the test on MCF7 cells (10 μM dronedarone in combination with T4), “significantly reduced proliferation”. The “effect on cell proliferation” value with MD-MB-231 cells (dronedarone alone, without T3/T4 (FIG. 13: MDA-MB-231 cells, 24 hours)) is listed as “not affected”.

For the origin of these results see patent US10576056B2, “Compounds for treating cancer and methods of use thereof” (MCMASTER UNIVERSITY, priority 2015, dated 2020).
